Experimental data taken from ChEMBL document CHEMBL1158942, “Novel meroterpenoids from Cystoseira mediterranea: use of the crown-gall bioassay as a primary screen for lipophilic antineoplastic agents” (1991).

Tested on: Agrobacterium tumefaciens
Experiment: Antitumor activity against Agrobacterium tumefaciens B6-induced crown gall tumor in potato tubers at 10000 uM after 15 to 20 days by crown gall tumor potato disk test
Format: functional

SMILES	inhibition at 10000 µM [%]
Cc1cc(O)cc2c1OC(C)(CC1=C3C[C@@H](O)C(C)(C)OC1C(C)(C)CCCC3=O)CC2 (stereo partly drawn) [CYSTOSEIROL]	73
C/C(=C\Cc1cc(O)cc(C)c1O)CC(=O)C[C@@]1(C)CC2C(O)=CC(O)=C[C@]1(C)C2(C)C [MEDITERRANEOL A]	88
COc1cc(C)c(O)c(C/C=C(\C)CC(=O)CCCC(=O)C=C(C)C)c1 [MEDITERRANENONE]	76
